target: Neuraminidase (Influenza B virus (strain B/Lee/1940), UniProt P03474); assay: In vitro inhibitory activity against B/Lee/40 Influenza B Neuraminidase.

Question: How did the IC50 turn out when `CCC(CC)Nc1cc(C(=O)O)ccc1N1C(=O)CCC1(CO)CO` was run?
Answer: 104 µM

Question: `N=C(N)Nc1cc(C(=O)O)ccc1N1C(=O)CCC1(CO)CO` was tested. Which IC50 did it give?
Answer: 8 µM

Question: Which IC50 does the source give for `CC(=O)Nc1c(N=C(N)N)cc(C(=O)O)cc1N=C(N)N` here?
Answer: 250 µM

Question: How did the IC50 turn out when `CCC(CC)Nc1cc(C(=O)O)ccc1N1CCCC1=O` was run?
Answer: > 5000 µM

Question: `O=C(O)c1ccc(N2C(=O)CCC2(CO)CO)cc1` was tested. Which IC50 did it give?
Answer: > 8000 µM

Question: How did the IC50 turn out when `NCC1CCC(=O)N1c1ccc(C(=O)O)cc1N=C(N)N` (stereo unspecified) was run?
Answer: 500 µM
